In ChEMBL document CHEMBL1145498, “A systematic interaction map of validated kinase inhibitors with Ser/Thr kinases” (Proc Natl Acad Sci U S A, 2007):

How the values were obtained:
[1] = biological target: Calcium/calmodulin-dependent protein kinase type 1G (Homo sapiens) (UniProt Q96NX5)
[2] = biological target: Calcium/calmodulin-dependent protein kinase kinase 2 (Homo sapiens, UniProt Q96RR4)
[3] = biological target: Cyclin-dependent kinase 6 (Homo sapiens) (UniProt Q00534)
[4] = biological target: Serine/threonine-protein kinase Chk2 (Homo sapiens, UniProt O96017)
[5] = biological target: Dual specificity protein kinase CLK2 (Homo sapiens) (UniProt P49760)
[6] = biological target: Dual specificity protein kinase CLK3 (Homo sapiens) (UniProt P49761)
[7] = biological target: Casein kinase I isoform gamma-1 (Homo sapiens) (UniProt Q9HCP0)
[8] = biological target: Death-associated protein kinase 3 (Homo sapiens) (UniProt O43293)
[9] = biological target: Tyrosine-protein kinase JAK1 (Homo sapiens) (UniProt P23458)
[10] = biological target: Mitogen-activated protein kinase 11 (Homo sapiens, UniProt Q15759)
[11] = biological target: Mitogen-activated protein kinase 3 (Homo sapiens, UniProt P27361)
[12] = biological target: Serine/threonine-protein kinase Nek6 (Homo sapiens) (UniProt Q9HC98)
[13] = biological target: Serine/threonine-protein kinase OSR1 (Homo sapiens) (UniProt O95747)
[14] = biological target: Serine/threonine-protein kinase pim-2 (Homo sapiens, UniProt Q9P1W9)
[15] = biological target: Serine/threonine-protein kinase pim-3 (Homo sapiens) (UniProt Q86V86)
[16] = biological target: T1, Serine/threonine-protein kinase PLK4 (Homo sapiens) (UniProt O00444)
T1 sequence (whole entry): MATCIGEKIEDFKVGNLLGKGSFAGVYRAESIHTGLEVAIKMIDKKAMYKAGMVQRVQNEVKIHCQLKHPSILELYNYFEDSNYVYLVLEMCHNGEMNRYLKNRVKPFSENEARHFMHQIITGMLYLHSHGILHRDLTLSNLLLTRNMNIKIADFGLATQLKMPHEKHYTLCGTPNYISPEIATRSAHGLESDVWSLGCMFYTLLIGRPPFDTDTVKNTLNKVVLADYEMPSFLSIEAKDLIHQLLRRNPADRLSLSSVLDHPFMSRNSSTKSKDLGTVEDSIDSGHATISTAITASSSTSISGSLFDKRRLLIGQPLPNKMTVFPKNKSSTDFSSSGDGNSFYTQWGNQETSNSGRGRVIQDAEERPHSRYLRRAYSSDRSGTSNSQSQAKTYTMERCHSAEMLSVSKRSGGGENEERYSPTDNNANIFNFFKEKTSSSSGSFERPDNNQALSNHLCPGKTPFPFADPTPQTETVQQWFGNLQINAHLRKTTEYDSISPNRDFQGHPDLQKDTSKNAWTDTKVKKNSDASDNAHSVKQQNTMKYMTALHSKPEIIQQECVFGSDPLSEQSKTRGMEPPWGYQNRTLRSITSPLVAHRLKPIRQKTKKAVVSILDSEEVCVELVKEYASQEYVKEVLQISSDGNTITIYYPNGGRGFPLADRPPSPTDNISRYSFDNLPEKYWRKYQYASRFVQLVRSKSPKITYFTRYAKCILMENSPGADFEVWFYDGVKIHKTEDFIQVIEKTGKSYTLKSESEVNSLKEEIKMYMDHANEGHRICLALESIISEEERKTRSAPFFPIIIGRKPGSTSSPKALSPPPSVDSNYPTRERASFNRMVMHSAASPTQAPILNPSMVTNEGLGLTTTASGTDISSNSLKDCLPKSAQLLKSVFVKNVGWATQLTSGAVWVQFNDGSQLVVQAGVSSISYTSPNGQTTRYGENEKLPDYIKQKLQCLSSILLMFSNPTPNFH

[17] = biological target: cAMP-dependent protein kinase catalytic subunit alpha (Homo sapiens) (UniProt P17612)
[18] = biological target: Ribosomal protein S6 kinase alpha-3 (Homo sapiens) (UniProt P51812)
[19] = biological target: STE20-like serine/threonine-protein kinase (Homo sapiens) (UniProt Q9H2G2)
[20] = biological target: T2, Lymphokine-activated killer T-cell-originated protein kinase (Homo sapiens) (UniProt Q96KB5)
T2 sequence (whole entry): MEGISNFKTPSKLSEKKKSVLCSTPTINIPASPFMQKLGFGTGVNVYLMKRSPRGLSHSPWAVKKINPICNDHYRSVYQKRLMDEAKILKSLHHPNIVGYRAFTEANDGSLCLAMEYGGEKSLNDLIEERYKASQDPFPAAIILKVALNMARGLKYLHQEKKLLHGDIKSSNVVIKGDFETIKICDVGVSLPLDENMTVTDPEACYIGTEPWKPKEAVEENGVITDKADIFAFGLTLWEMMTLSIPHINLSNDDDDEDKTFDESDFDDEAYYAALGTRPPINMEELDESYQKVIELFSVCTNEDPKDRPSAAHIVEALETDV

[21] = biological target: T3, Serine/threonine-protein kinase VRK3 (Homo sapiens) (UniProt Q8IV63)
T3 sequence (whole entry): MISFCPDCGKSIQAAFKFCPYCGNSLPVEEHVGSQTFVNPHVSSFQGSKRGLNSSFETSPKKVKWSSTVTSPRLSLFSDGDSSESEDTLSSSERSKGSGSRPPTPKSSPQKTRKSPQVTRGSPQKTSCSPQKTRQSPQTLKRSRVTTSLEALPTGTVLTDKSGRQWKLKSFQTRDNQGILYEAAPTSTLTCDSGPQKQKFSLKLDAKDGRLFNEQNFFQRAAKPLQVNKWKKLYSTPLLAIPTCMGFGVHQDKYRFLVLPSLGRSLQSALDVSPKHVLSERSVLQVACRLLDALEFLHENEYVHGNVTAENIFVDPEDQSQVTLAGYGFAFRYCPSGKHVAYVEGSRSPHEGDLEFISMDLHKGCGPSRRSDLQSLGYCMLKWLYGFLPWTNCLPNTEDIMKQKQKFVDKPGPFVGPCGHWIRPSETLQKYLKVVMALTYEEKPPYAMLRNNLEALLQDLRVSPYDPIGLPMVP

Calcium/calmodulin-dependent protein kinase kinase 2, sequence (Q96RR4 2-588 limits assumed): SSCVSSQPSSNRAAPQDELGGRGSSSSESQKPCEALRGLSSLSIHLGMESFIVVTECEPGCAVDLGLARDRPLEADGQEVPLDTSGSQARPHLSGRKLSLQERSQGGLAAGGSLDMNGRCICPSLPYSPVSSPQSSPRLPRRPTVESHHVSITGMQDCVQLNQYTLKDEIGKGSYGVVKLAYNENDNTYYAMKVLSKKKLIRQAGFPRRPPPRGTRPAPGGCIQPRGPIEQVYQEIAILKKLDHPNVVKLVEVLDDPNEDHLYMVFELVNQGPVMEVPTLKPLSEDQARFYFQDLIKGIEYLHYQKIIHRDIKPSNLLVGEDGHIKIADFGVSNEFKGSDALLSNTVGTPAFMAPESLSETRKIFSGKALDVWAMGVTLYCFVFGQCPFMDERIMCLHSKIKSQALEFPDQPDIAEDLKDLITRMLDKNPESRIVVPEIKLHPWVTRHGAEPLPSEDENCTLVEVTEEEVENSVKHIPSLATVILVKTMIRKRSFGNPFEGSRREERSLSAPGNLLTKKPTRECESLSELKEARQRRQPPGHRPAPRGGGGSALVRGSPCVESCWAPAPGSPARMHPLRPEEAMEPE
Cyclin-dependent kinase 6 (Homo sapiens), sequence (Q00534 whole entry): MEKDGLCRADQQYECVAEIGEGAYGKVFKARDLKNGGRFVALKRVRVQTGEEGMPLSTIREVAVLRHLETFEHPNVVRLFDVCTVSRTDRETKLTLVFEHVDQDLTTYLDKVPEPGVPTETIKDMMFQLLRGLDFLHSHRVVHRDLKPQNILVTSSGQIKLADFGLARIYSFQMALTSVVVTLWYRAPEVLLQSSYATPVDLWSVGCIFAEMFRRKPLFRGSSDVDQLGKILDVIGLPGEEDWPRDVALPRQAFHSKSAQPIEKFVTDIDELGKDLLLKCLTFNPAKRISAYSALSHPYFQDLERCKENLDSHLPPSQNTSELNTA
Serine/threonine-protein kinase Chk2, sequence (O96017 whole entry): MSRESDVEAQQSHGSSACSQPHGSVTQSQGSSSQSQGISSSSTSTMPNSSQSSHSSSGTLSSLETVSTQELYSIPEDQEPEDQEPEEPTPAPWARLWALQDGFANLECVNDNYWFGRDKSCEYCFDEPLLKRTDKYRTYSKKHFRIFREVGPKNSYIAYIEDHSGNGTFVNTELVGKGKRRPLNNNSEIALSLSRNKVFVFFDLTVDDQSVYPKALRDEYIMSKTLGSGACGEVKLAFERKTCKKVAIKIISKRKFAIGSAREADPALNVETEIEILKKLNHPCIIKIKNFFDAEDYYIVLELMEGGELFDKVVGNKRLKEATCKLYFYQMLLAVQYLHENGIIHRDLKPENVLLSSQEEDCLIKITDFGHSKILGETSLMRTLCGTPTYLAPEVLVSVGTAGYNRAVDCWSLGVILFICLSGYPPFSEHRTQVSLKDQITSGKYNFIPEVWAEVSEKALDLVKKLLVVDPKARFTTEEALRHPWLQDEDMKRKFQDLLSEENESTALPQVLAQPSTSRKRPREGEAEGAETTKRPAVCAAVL
Mitogen-activated protein kinase 3, sequence (P27361 whole entry): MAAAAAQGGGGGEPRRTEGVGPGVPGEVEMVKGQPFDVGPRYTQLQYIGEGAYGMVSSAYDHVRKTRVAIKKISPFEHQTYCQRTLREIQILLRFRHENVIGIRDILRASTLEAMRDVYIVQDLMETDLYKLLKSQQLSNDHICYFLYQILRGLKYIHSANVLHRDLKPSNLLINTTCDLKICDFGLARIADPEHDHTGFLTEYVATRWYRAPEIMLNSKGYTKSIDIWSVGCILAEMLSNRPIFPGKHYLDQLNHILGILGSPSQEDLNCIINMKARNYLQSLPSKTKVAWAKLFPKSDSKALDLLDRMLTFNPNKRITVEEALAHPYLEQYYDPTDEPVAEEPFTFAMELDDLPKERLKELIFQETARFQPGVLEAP
Ribosomal protein S6 kinase alpha-3 (Homo sapiens), sequence (P51812 whole entry): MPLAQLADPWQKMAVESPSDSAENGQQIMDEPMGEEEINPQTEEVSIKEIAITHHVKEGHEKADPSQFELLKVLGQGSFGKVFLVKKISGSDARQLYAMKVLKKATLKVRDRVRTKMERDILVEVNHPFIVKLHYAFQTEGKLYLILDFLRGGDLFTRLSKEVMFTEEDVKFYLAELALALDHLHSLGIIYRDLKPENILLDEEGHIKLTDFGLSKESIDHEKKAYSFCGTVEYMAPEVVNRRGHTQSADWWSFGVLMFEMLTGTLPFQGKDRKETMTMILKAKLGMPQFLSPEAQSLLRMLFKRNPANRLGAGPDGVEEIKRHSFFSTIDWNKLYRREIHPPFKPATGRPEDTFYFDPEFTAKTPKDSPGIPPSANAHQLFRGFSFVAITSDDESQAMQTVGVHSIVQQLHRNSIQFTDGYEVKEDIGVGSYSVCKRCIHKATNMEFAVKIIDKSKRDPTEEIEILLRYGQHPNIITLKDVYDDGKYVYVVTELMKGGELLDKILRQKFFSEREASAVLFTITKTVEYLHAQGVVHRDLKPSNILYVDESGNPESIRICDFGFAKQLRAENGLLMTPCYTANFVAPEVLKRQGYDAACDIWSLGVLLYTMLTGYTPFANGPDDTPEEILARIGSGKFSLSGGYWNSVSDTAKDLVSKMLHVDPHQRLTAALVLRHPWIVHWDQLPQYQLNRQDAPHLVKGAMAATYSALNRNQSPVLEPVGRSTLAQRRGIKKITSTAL
Calcium/calmodulin-dependent protein kinase type 1G (Homo sapiens), sequence (Q96NX5 whole entry): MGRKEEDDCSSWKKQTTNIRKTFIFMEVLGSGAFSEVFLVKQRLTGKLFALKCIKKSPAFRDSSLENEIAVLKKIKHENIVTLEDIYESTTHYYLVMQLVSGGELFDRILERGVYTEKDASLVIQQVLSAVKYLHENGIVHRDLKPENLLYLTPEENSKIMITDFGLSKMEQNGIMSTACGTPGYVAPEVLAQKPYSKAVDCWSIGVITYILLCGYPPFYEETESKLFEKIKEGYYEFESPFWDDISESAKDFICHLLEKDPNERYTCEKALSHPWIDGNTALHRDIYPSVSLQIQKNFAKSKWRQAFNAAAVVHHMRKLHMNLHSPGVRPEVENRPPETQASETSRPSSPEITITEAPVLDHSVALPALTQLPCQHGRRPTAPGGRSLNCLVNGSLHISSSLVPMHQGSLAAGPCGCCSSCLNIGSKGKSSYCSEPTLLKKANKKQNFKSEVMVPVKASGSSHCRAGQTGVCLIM
Death-associated protein kinase 3 (Homo sapiens), sequence (O43293 whole entry, looked up): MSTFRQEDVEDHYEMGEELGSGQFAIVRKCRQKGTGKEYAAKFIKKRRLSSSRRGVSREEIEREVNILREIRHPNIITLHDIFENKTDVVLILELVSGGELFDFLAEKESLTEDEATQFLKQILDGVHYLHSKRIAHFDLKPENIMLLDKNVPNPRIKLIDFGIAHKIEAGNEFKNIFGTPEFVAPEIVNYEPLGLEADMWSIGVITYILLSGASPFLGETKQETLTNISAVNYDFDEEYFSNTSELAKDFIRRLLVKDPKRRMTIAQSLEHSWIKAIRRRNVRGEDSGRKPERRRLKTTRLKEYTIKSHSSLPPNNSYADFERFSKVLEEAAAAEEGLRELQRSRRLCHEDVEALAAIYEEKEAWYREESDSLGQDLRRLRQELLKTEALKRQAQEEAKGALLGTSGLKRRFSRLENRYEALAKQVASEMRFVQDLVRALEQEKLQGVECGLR
Serine/threonine-protein kinase OSR1 (Homo sapiens), sequence (O95747 2-527 limits assumed): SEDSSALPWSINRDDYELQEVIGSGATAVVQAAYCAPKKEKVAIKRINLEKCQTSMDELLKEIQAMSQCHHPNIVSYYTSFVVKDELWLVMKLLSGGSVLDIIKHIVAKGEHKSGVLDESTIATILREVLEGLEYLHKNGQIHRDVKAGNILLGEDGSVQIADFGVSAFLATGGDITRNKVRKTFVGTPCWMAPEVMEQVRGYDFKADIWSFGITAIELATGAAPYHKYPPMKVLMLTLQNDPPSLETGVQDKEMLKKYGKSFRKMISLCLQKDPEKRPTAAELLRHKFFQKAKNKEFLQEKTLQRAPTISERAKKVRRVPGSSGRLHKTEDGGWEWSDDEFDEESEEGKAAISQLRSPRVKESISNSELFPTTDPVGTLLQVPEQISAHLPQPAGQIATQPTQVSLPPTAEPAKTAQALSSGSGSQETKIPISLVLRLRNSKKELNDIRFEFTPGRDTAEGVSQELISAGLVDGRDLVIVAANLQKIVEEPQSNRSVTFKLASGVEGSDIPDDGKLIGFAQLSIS
Dual specificity protein kinase CLK2 (Homo sapiens), sequence (P49760 whole entry, looked up): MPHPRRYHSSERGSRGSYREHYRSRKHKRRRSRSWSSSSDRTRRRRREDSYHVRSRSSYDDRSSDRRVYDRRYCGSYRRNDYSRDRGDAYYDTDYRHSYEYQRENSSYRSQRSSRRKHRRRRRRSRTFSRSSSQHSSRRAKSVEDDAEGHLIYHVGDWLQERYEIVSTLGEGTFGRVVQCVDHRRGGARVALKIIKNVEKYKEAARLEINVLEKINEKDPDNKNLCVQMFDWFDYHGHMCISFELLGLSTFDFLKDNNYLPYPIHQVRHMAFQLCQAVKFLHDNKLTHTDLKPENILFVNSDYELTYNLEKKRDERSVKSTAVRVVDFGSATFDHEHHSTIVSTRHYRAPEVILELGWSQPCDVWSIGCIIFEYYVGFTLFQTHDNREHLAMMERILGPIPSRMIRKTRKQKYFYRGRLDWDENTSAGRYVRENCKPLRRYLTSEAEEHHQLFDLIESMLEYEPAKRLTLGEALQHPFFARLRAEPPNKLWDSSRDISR

Row | SMILES | ΔTm [1] | ΔTm [2] | ΔTm [3] | ΔTm [4] | ΔTm [5] | ΔTm [6] | ΔTm [7] | ΔTm [8] | ΔTm [9] | ΔTm [10] | ΔTm [11] | ΔTm [12] | ΔTm [13] | ΔTm [14] | ΔTm [15] | ΔTm [16] | ΔTm [17] | ΔTm [18] | ΔTm [19] | ΔTm [20] | further results
1 | Cn1cnc2c(NCc3ccccc3)nc(NCCO)nc21 [OLOMOUCINE] | 0 °C | -0.2 °C | 0 °C | -0.6 °C | 0.1 °C | -0.1 °C | 0.1 °C | -0.1 °C | 0 °C | -0.1 °C | 0.2 °C | 0 °C | 0.2 °C | 0.1 °C | -0.1 °C | 0.2 °C | -0.1 °C | -0.2 °C | 0 °C | 0.4 °C | ΔTm [21]: 0.1 °C
2 | Cc1cc(C=C2C(=O)C=CC2=O)cc(C)c1O | -0.4 °C | -1.4 °C | -3.4 °C | 2.5 °C | -0.8 °C | -1.5 °C | 0.1 °C | 0.6 °C | -7.1 °C | 2.3 °C | 0.6 °C | -0.4 °C | 0.1 °C | -5.7 °C | 3.6 °C | 1.3 °C | 0.5 °C | -7.9 °C | 0.7 °C | 0.2 °C | ΔTm [21]: -0.3 °C
3 | CSc1nc(-c2ccc(F)cc2)c(-c2ccnc(NC(C)c3ccccc3)c2)[nH]1 (racemic) | 1.9 °C | 0.7 °C | 0 °C | 0.7 °C | 0.1 °C | -0.2 °C | 3.6 °C | 2.4 °C | 0.9 °C | 9.5 °C | 0 °C | 0.5 °C | 0.3 °C | -0.2 °C | -0.5 °C | 0.3 °C | -0.7 °C | 0.2 °C | 0.8 °C | 0.4 °C | ΔTm [21]: -0.3 °C
4 | COc1ccc(S(=O)(=O)N(CCO)c2ccccc2CN(C)C/C=C/c2ccc(Cl)cc2)cc1 | 0.3 °C | 0 °C | -0.3 °C | -0.1 °C | -0.3 °C | -0.3 °C | 0.1 °C | 0.2 °C | -0.5 °C | 0.2 °C | 0.1 °C | 0.3 °C | -0.7 °C | 0.6 °C | 0.5 °C | 1 °C | -4.1 °C | 0.7 °C | 1.1 °C | -0.1 °C | ΔTm [21]: -0.6 °C
5 | O=S(=O)(c1cccc2c(Cl)cccc12)N1CCCNCC1 | -0.1 °C | -0.8 °C | 0.9 °C | -0.1 °C | 0.6 °C | -0.2 °C | 0.2 °C | 2.5 °C | 0 °C | -0.3 °C | 0.4 °C | 0 °C | -0.5 °C | 1.7 °C | 3.5 °C | 0.4 °C | 1.4 °C | -0.2 °C | -0.1 °C | 0 °C | ΔTm [21]: 0.1 °C
